Experimental data published in patent US20210292330A1, “PYRROLIDINE-FUSED HETEROCYCLES” (Erasca, Inc., priority 2020, published 2021).

Molecular target: T1, KRAS 4B G12C protein (Homo sapiens, UniProt P01116, G12C)
T1 construct: This protein contained 188 amino acids in total, including an N-terminal 6-Histidine tag; made in house; host or cells: E. coli BL21
Experiment: In vitro covalent adduct formation (CAF) assay by LC-MS
Format: binding
Settings: compound 10 μM, protein 5 μM, 22° C., percentage of protein bound by the compound
Description: In vitro covalent adduct formation assay: Covalent adduct formation (CAF) reactions between Cys12 of the KRAS 4B G12C protein and some of the compounds of Table 1 were measured in vitro using liquid chromatography-mass spectrometry (LC-MS).
Recombinant Human KRAS 4B protein containing the G12C mutation was used in compound screening experiments. This protein contained 188 amino acids in total, including an N-terminal 6-Histidine tag, followed by a Tobacco Etch Virus (TEV) tag, followed by residues 1-169 of the native KRAS 4B sequence. The exact mass of the protein was 21,310 Da as determined by mass spectrometry. The full amino acid sequence is shown below:
The recombinant protein was expressed in E. coli BL21 cells and purified using affinity chromatography via a Ni-NTA column. […] Pure KRAS 4B G12C protein was diluted to a concentration of 5 μM in Tris Buffered Saline, pH 7.4. The compounds were dissolved in DMSO and added to the diluted protein to make a 10 μM concentration. The total DMSO concentration in the reaction was 4%. The reaction was mixed by pipetting and incubated at 22° C. for one hour. Aliquots of the reaction were taken over time and diluted 2:1 in 0.1% formic acid. The intact mass of the protein samples was measured by LC-MS using a QExactive+ mass spectrometer (Thermo Scientific). An amount of 500 ng total protein was injected onto a C8 reverse phase column, eluted with a seven-minute gradient of 30%-90% acetonitrile/0.1% formic acid, and analyzed for intact mass by the mass spectrometer. Adducts identified were confirmed to be within 1 Dalton of the expected mass, and the relative ratios of free:adduct protein were used to quantify the percentage of protein bound by the compound. CAF reactions were run in duplicate, with a typical variability of ±5%.

Compound | CAF (10 minutes/60 minutes) at 10 micromolar: 10 minutes | CAF (10 minutes/60 minutes) at 10 micromolar: 60 minutes
C=CC(=O)N1[C@H](C)CN(c2nc(OC[C@@H]3CCCN3C)nc3c2CN(Cc2c(Cl)ccc(O)c2C)C3)C[C@@H]1C [1-333] | 17% | 59%
C=CC(=O)N1CCN(c2nc(OC[C@@H]3CCCN3C)nc3c2CN(Cc2c(F)cccc2F)C3)[C@@H](C)C1 [1-14] | 0% | 8%
C=CC(=O)N1CCN(c2nc(OCCCN3CCOCC3)nc3c2CN(C2CCc4ccccc42)C3)C[C@@H]1CC#N (stereo partly shown) [1-131] | 76% | 97%
C=C(F)C(=O)N1CCN(c2nc(OC[C@@H]3CCCN3C)nc3c2CN(C2CCc4cccc(Cl)c42)C3)C[C@@H]1CC#N (stereo partly shown) [1-153] | 46% | 78%
C=CC(=O)N1CCN(c2nc(OC)nc3c2CN(Cc2cc(F)ccc2Cl)C3)C[C@@H]1CC#N [1-76] | 0% | 7%
C=CC(=O)N1CCN(c2nc(OC[C@@H]3CCCN3C)nc3c2CN(Cc2nc(OC)ccc2Cl)C3)[C@@H](C)C1 [1-65] | 0% | 2%
C=CC(=O)N1CCN(c2nc(OC[C@@H]3CCCN3C)nc3c2CN(Cc2cc(Cl)ccc2F)C3)[C@@H](C)C1 [1-33] | 0% | 5%
C=CC(=O)N1C2CC(=O)CC1CN(c1nc(OC[C@@H]3CCCN3C)nc3c1CN(Cc1cc(O)ccc1Cl)C3)C2 [1-328] | 14% | 39%
C=CC(=O)N1C2CCCC1CN(c1nc(OC[C@@H]3CCCN3C)nc3c1CN(Cc1cc(OC)ccc1Cl)C3)C2 [1-148] | 0%/ 0% | 0%/ 0%
C=CC(=O)N1CC2(C1)CN(c1nc(OC[C@@H]3CCCN3C)nc3c1CN(C1CCc4ccccc41)C3)CCO2 (stereo partly shown) [1-216] | 18% | 54%
C=CC(=O)N1CCN(c2nc(OC)nc3c2CN(Cc2cc(OC)ccc2Cl)C3)C[C@@H]1CC#N [1-74] | 2% | 21%
C=CC(=O)N1CCN(c2nc(-c3nnc(C)o3)nc3c2CN(C2CCc4ccccc42)C3)C[C@@H]1CC#N (stereo partly drawn) [1-197, 2-((2S)-1-acryloyl-4-(6-(2,3-dihydro-1H-inden-1-yl)-2-(5-methyl-1,3,4-oxadiazol-2-yl)-6,7-dihydro-5H-pyrrolo[3,4-d]pyrimidin-4-yl)piperazin-2-yl)acetonitrile] | 24% | 52%
C=CC(=O)N1CCN(c2nc(OC[C@@H]3CCCN3C)nc3c2CN(C(=O)c2cc(O)ccc2C)C3)[C@@H](C)C1 [1-23, 1-((S)-4-(6-(5-hydroxy-2-methylbenzoyl)-2-(((S)-1-methylpyrrolidin-2-yl)methoxy)-6,7-dihydro-5H-pyrrolo[3,4-d]pyrimidin-4-yl)-3-methylpiperazin-1-yl)prop-2-en-1-one] | 9% | 35%
C=CC(=O)N1CCN(c2nc(Oc3cccc4c3CN(C)C4)nc3c2CN(C2CCc4ccccc42)C3)C[C@@H]1CC#N (stereo partly shown) [1-174] | 9% | 28%
C=C(F)C(=O)N1CCN(c2nc(OC[C@@H]3CCCN3C)nc3c2CN(Cc2nc(N)cc(C)c2C(F)(F)F)C3)C[C@@H]1CC#N [1-334] | 79% | 86%

Other lines, results leading:

CAF (10 minutes/60 minutes) at 10 micromolar: 10 minutes | CAF (10 minutes/60 minutes) at 10 micromolar: 60 minutes | Compound
81% | 91% | C=CC(=O)N1CCN(c2nc(OC[C@@H]3CCCN3CCF)nc3c2CN(C2CCc4ccccc42)C3)C[C@@H]1CC#N (stereo partly shown) [1-151]
73% | 95% | C=CC(=O)N1CCN(c2nc(OC[C@@H]3CCCN3C)nc3c2CN(S(=O)(=O)c2cccc4ccccc24)C3)C[C@@H]1CC#N [1-238]
47% | 79% | C=CC(=O)N1CCN(c2nc(OC[C@@H]3CCCN3C)nc3c2CN(Cc2ccccc2C(C)CC)C3)C[C@@H]1CC#N (stereo partly shown) [1-188]
0% | 1% | C=CC(=O)N1CCN(c2nc(OC[C@@H]3CCCN3C)nc3c2CN(C2CCc4ccccc42)C3)C[C@@H]1CCO (stereo partly shown) [1-101]
65% | 93% | C=CC(=O)N1CCN(c2nc(OC[C@@H]3CCCN3C)nc3c2CN(Cc2cc(OC)ccc2C)C3)C[C@@H]1CC#N [1-6]
0%/ 0% | 0%/ 0% | C=CC(=O)N1CCN(c2nc(OC[C@@H]3CCCN3C)nc3c2CN(Cc2c(Cl)cccc2OC(F)F)C3)C[C@@H]1C [1-85]
0%/ 0% | 0%/ 0% | C=CC(=O)N1CCN(c2nc(OC[C@@H]3CCCN3C)nc3c2CN(Cc2cc(C(F)F)ccc2C)C3)[C@@H](C)C1 [1-64]
95% | 98% | C=CC(=O)N1CCN(c2nc(OC[C@@H]3CCCN3C)nc3c2CN(C(C)c2c(F)cccc2OC)C3)C[C@@H]1CC#N (stereo partly shown) [1-97]
35% | 85% | C=CC(=O)N1CCN(c2nc(OC[C@@H]3CCCN3C)nc3c2CN(c2cccc4ccccc24)C3)C[C@@H]1CC#N [1-9, 2-[(2S)-4-(2-{[(2S)-1-methylpyrrolidin-2-yl]methoxy}-6-(naphthalen-1-yl)-5H,7H-pyrrolo[3,4-d]pyrimidin-4-yl)-1-(prop-2-enoyl)piperazin-2-yl]acetonitrile]
0% | 5% | C=CC(=O)N1CCN(c2nc(OC[C@@H]3CCCN3C)nc3c2CN(C2CCc4ccccc42)C3)C[C@@H]1CCC#N (stereo partly shown) [1-212]
2% | 22% | C=C(F)C(=O)N1CCN(c2nc(OC[C@@H]3CCCN3C)nc3c2CN(Cc2cc(O)c(C)cc2Cl)C3)C[C@@H]1CC#N [1-329]
15% | 35% | C#CC[C@H]1CN(c2nc(OC[C@@H]3CCCN3C)nc3c2CN(C2CCc4ccccc42)C3)CCN1C(=O)C=C (stereo partly drawn) [1-144, 1-((2S)-4-(6-(2,3-dihydro-1H-inden-1-yl)-2-(((S)-1-methylpyrrolidin-2-yl)methoxy)-6,7-dihydro-5H-pyrrolo[3,4-d]pyrimidin-4-yl)-2-(prop-2-yn-1-yl)piperazin-1-yl)prop-2-en-1-one]
93% | 95% | C=CC(=O)N1CCN(c2nc(OC[C@@H]3CCCN3C)nc3c2CN(Cc2cccc4ccccc24)C3)C[C@@H]1CC#N [1-164]
94% | 95% | C=CC(=O)N1CCN(c2nc(OC[C@@H]3CCCN3C)nc3c2CN(Cc2c(Cl)ccc4ccccc24)C3)C[C@@H]1CC#N [1-236]
56% | 91% | C=CC(=O)N1CCN(c2nc(OC[C@@H]3CCCN3C)nc3c2CN(Cc2cccc(F)c2)C3)C[C@@H]1CC#N [1-35]
59% | 93% | C=CC(=O)N1CCN(c2nc(OC[C@@H]3CCCN3C)nc3c2CN(C2CCOc4ccccc42)C3)C[C@@H]1CC#N (stereo partly shown) [1-86]
90% | 99% | C=CC(=O)N1CCN(c2nc(OC[C@@H]3CCCN3C)nc3c2CN(c2cccc4cccc(C)c24)C3)C[C@@H]1CC#N [1-17, 2-((S)-1-acryloyl-4-(6-(8-methylnaphthalen-1-yl)-2-(((S)-1-methylpyrrolidin-2-yl)methoxy)-6,7-dihydro-5H-pyrrolo[3,4-d]pyrimidin-4-yl)piperazin-2-yl)acetonitrile]
40% | 86% | C=CC(=O)N1CCN(c2nc(OC[C@@H]3CCCN3C)nc3c2CN(Cc2cc(OC(F)F)ccc2Cl)C3)C[C@@H]1CC#N [1-53]
28% | 74% | C=CC(=O)N1CCN(c2nc(OC[C@@H]3CCCN3C)nc3c2CN(Cc2cc(F)cc(F)c2)C3)C[C@@H]1CC#N [1-12]
0% | 5% | C=CC(=O)N1CCN(c2nc(OC[C@@H]3CCCN3C)nc3c2CN(C2CCc4ccccc42)C3)C[C@@H]1CC(F)(F)F (stereo partly shown) [1-100]
